Assay results: ChEMBL document CHEMBL1158945, “Four Novel Diterpenoids: Clavirolides B, C, D, and E from the Chinese Soft Coral Clavularia viridis” (J Nat Prod, 1991)
Converted amounts (≈) assume the structure as drawn.

Assays:
[1] = system: Heart; experiment: Toxicity in isolated guinea pig heart assessed as bradycardia at 45 uM/kg; format: tissue-based, Cavia porcellus; details: ex_vivo
[2] = Cytotoxicity against mouse EAC cells; format: functional, cell-based; details: Ehrlich
[3] = Negative inotropic activity in guinea pig atria muscle at 36 uM; format: functional, Cavia porcellus, Muscle tissue
[4] = system: Rattus norvegicus; experiment: Decrease in blood pressure in rat at 45 uM/kg; format: organism-based
[5] = species: Oryctolagus cuniculus; experiment: Blocked of calcium channel in rabbit smooth muscle; format: tissue-based; details: Muscle tissue

Structure (SMILES): CC1=C2CC[C@@]3(C)CC[C@H](C)CC(=O)C[C@@H](C)C[C@@H](OC1=O)[C@H]23 [CLAVIROLIDE C]
- Activity [1]: 43.7%
- IC50 [2]: 27 µg/mL (≈ 84.8 µM)
- Activity [3]: 50%
- Activity [4]: 24 mmHg
- pD2 [5]: 5.48

Structure (SMILES): CC1=C2CC[C@@]3(C)CC/C(C)=C\C(=O)C[C@@H](C)C[C@@H](OC1=O)[C@H]23 [CLAVIROLIDE D]
- IC50 [2]: 11.7 µg/mL (≈ 37 µM)
- pD2 [5]: 4.79

Structure (SMILES): CC1=C2CC[C@@]3(C)C/C=C(/C)CC(=O)C[C@@H](C)C[C@@H](OC1=O)[C@H]23 [CLAVULACTONE]
- IC50 [2]: 8 µg/mL (≈ 25.3 µM)

Structure (SMILES): CC1=C2CC[C@@]3(C)C/C=C(\C)CC(=O)C[C@@H](C)C[C@@H](OC1=O)[C@H]23 [CLAVIROLIDE B]
- IC50 [2]: 21 µg/mL (≈ 66.4 µM)
- pD2 [5]: 4.68
